{"source": "paper PMC11554305", "about": "“Functional identification of soluble uric acid as an endogenous inhibitor of CD38” (eLife, 2024)", "key": {"[1]": {"system": "THP-1 cells", "test": "Intracellular NAD+ assay in THP-1 cells", "assay_type": "cell-based, human", "conditions": "sUA 0–10 mg/dL pre-incubation 2 hr, then stimulation 6 hr", "experimental": "Naïve THP-1 cells were pre-incubated with sUA (0–10 mg/dL) in RPMI-1640 medium containing 1% FBS for 2 hr, then the cells were washed twice with sterile PBS and stimulated with MSU crystals, cLPS, zymosan, or ATP for 6 hr. Subsequently, the cells were washed twice with sterile PBS, and then a total of 100 μL 5% ice-cold PCA was used to extract NAD^+ from cells in each well and medium as mentioned above.\nAs mentioned above, samples (cells, tissues, blood, or reaction buffer) were treated with ice-cold PCA, after extraction and centrifugation, the collected supernatant was appropriately diluted in 5% ice-cold PCA when applicable, and then was vortexed for 30 s and centrifuged at 15,000 rpm, 4°C for 5 min. Afterward, 30 μL supernatant was added into 200 μL 5 mM ammonium formate containing internal standards at indicated concentrations. Then, all the samples were vortexed for 30 s and centrifuged at 15,000 rpm, 4°C for 5 min again, the final supernatant was used for subsequent measurement. All the samples after handling were immediately analyzed in this study without freezing and thawing.\nThe LC-MS/MS system consisted of a triple quadrupole LCMS-8050 (Shimadzu) and an LC-30A system (Shimadzu). […] NAD^+ and NMN were measured independently in this study, as their peaks were hardly separated within a short time."}, "[2]": {"target": "T1, CD38 (Mus musculus, UniProt P56528)", "T1 construct": "host or cells: recombinant hCD38, cells and mouse tissues", "T1 sequence (P56528 1-304)": "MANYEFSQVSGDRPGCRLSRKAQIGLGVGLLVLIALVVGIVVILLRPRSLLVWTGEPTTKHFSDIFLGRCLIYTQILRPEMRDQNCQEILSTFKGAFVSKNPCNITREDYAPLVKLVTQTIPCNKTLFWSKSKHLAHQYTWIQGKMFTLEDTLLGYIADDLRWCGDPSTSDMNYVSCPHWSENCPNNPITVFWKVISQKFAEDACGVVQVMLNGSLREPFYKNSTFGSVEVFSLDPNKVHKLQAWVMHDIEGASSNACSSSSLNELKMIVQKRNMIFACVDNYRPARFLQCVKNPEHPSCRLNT", "test": "Hydrolase and cyclase activities of human and murine CD38", "assay_type": "biochemical", "conditions": "lung tissues from WT mice, OA 0–5 mM"}}, "data": [{"smiles": "O=c1[nH]c(=O)c2[nH]c(=O)[nH]c2[nH]1", "note": "[sUA, uric acid]", "values": [{"measurement": "Intracellular NAD+", "setting": "[1]", "value": "boosted intracellular NAD^+"}]}, {"smiles": "O=C(O)c1nc(=O)[nH]c(=O)[nH]1", "note": "[OA, oxonic acid, reference compound]", "values": [{"measurement": "IC50 for CD38 (in words)", "setting": "[2]", "value": "millimolar range"}]}]}
